Columns and labels:
[1] = test system: iNKT cells; assay: CD69 activation on liver iNKT cells in vivo; settings: mice that received aGC
Experimental: Mice were designated to groups that received PBS alone, sol aGC+solRAPA, sol aGC+NP RAPA. Mice were injected at 9 am and at 9.30 AM received BrefeldinA i.v. to prevent release of intracellular cytokines produced. At 1 pm, mice were sacrificed and the liver was perfused with PBS and processed to obtain a single cell suspension enriched for lymphocytes. Cells were stained with cell surface markers for iNKT cells (agc-loaded CD1d tetramers) and T cells receptor (TCRb) and activation marker CD69. Cells were acquired on a FacsCanto flow cytometer and analyzed on by FlowJo.

[2] = test system: Treg cells (CD4+CD25highFoxP3+); assay: Antigen-specific tolerogenic dendritic cells (tDC) activity on Treg cell development; type: cell-based, OTII mice; settings: FIG. 3; unstimulated 1.3%
Experimental: The assay included the use of OTII mice which have a transgenic T cell receptor specific for an immune-dominant ovalbumin peptide (323-339). In order to create antigen-specific tDCs, CD11c^+ splenocytes were isolated, and the ovalbumin peptide (323-339) added in vitro at 1 μg/ml or no antigen. Soluble or nanocarrier-encapsulated rapamycin was then added to the DCs for 2 hours which were then washed extensively to remove free rapamycin from the culture. Purified responder CD4^+CD25^− cells were isolated from OTII mice and added to tDC at a 10:1 T to DC ratio. The mixture of tDC and OTII T cells were then cultured for 4-5 days, and the frequency of Treg cells (CD4^+CD25highFoxP3^+) were analyzed by flow cytometry as shown in FIG. 1. Regions were selected based on isotype controls.
Free rapamycin or synthetic nanocarriers containing rapamycin were combined with free soluble Ovalbumin (323-339) to evaluate induction of tDC (FIG. 2). […] Briefly, antigen specific tDC were obtained by isolating dendritic cells (CD11c^+ splenocytes) and culturing them in combination with the Ovalbumin (323-339) peptide plus soluble or nanocarrier encapsulated rapamycin (Synthetic Nanocarrier #s 13, 14, 15 and 16) for 2 hours followed by extensive washing. […] The mixture of tDC and OTII T cells were then cultured for 4-5 days, and the frequency of Treg cells (CD4^+CD25highFoxP3^+) were analyzed by flow cytometry.

| Structure (SMILES) | iNKT cell activation (cytokine production and up regulation of CD69) [1] | induction of FoxP3 expressing cells [2] [%] |
| --- | --- | --- |
| CCCCCCCCCCCCCCCCCCCCCCCCCC(=O)N[C@@H](CO[C@H]1O[C@H](CO)[C@H](O)[C@H](O)[C@H]1O)[C@H](O)[C@H](O)CCCCCCCCCCCCCC [aGC, α-Galactosyl Ceramide (KRN7000)] | activated | – |
| CO[C@H]1C[C@@H]2CC[C@@H](C)[C@@](O)(O2)C(=O)C(=O)N2CCCC[C@H]2C(=O)O[C@H]([C@H](C)C[C@@H]2CC[C@@H](O)[C@H](OC)C2)CC(=O)[C@H](C)/C=C(\C)[C@@H](O)[C@@H](OC)C(=O)[C@H](C)C[C@H](C)/C=C/C=C/C=C/1C [free rapamycin, Rapamycin] | – | 2.7 |

Source: patent US11717569B2, “Tolerogenic synthetic nanocarriers” (Selecta Biosciences, Inc., priority 2011, dated 2023)
